Measured values: patent publication US6017919A, “Compounds and pharmaceutical use thereof” (Japan Tobacco Inc., priority 1996, dated 2000)

System: anti-thy-1 antibody-induced nephritis
Test: Anti-thy-1 antibody-induced nephritis model
Assay type: in vivo, male Wistar rats
Conditions: for Nuclear cell count in nephritic glomerulus / Urinary protein: oral, once a day until day 6, rats
Description: [IV] Anti-thy-1 antlbody-induced nephritis model (in vivo)
The test compound (prednisolone, compound of Example 7-35) was orally administered to male Wistar rats (6 weeks old), and one hour later, an anti-thy-1 antibody (ox-7, 0.938 mg/ml) was administered at 0.1 ml/rat from the tail vein. The test compound was administered once a day thereafter until day 6. At day 6, the rats were forcibly loaded with 8 ml of tap water and then deprived of water for consecutive 16 hours, during which period urine samples were taken from the rats. At day 7, the rats were killed by exsanguination. The kidney was removed, weighed and fixed with formalin, and tissue samples (PAS stained) were prepared therefrom. Evaluation was done by measuring urinary protein and nuclear cell count in nephritic glomerulus section. The test compound was prepared into a suspension with 0.5% HPMC and administered at 10 ml/kg per dose.
Sham no administration of anti-thy-1 antibody,
loaded with water and orally administered
Control administration of anti-thy-1 antibody,
Prednisolone administration of anti-thy-1 antibody,
Compound of Ex. 7-35 with said test compound

Row | Compound | Nuclear cell count in nephritic glomerulus (0.1 mg/kg) [nuclei/glomerulus] | Urinary protein (0.1 mg/kg) [mg/16 hr] | suppressive effect on increase in nuclear cell count in nephritic glomerulus (0.1 mg/kg, result in words) | suppressive effect on increase in urinary protein (0.1 mg/kg, result in words) | Nuclear cell count in nephritic glomerulus (3 mg/kg) [nuclei/glomerulus] | Urinary protein (3 mg/kg) [mg/16 hr]
1 | CCCCCOc1ccc2c(c1OCCCCC)CN(CCc1ccc(N)cc1)C2=O.Cl [Example 7-35, 2-[2-(4-aminophenyl)ethyl]-4,5-bispentyloxy-2,3-dihydroisoindol-1-one hydrochloride] | 84.8 ± 1.2 | 15.2 ± 2.4 | significant suppressive effect | significant suppressive effect |  | 
2 | C[C@]12C=CC(=O)C=C1CC[C@@H]1[C@@H]2[C@@H](O)C[C@@]2(C)[C@H]1CC[C@]2(O)C(=O)CO [Prednisolone, prednisolone, reference compound] |  |  |  |  | 76.9 ± 0.9 | 20.9 ± 2.7
